Laboratory results: a compilation of properties of binary mixtures (doi:10.1016/j.jct.2020.106150)

Experiment: xn = mol fraction of the nth substance listed
Conditions: 100 kPa, x1 = 1

CCCC[P+](C)(CCCC)CCCC.COS(=O)(=O)[O-] + O=Cc1ccco1
Conditions | speed of sound [m/s] | viscosity [mPa·s]
293.15 K | 1563.7 | 730
298.15 K | 1546.1 | 520
303.15 K | 1529.7 | 380
308.15 K | 1514.3 | 290
313.15 K | 1499.2 | 217
318.15 K | 1485.7 | 169
323.15 K | 1472.1 | 133
